# Data as given in ChEMBL document CHEMBL6153079, “Discovery of noncovalent diaminopyrimidine-based Inhibitors for glioblastoma via a dual FAK/DNA targeting strategy” (Eur J Med Chem, 2025).
# Activity calls are given as the source filed them. The rule behind the calls is not given here.
# Legend:
# [1] = target: T1, Focal adhesion kinase 1 (Homo sapiens, UniProt Q05397); experiment: Inhibition of FAK (unknown origin) at 50 nM relative to control
# Target sequence in this assay (Q05397 2-1052 limits assumed): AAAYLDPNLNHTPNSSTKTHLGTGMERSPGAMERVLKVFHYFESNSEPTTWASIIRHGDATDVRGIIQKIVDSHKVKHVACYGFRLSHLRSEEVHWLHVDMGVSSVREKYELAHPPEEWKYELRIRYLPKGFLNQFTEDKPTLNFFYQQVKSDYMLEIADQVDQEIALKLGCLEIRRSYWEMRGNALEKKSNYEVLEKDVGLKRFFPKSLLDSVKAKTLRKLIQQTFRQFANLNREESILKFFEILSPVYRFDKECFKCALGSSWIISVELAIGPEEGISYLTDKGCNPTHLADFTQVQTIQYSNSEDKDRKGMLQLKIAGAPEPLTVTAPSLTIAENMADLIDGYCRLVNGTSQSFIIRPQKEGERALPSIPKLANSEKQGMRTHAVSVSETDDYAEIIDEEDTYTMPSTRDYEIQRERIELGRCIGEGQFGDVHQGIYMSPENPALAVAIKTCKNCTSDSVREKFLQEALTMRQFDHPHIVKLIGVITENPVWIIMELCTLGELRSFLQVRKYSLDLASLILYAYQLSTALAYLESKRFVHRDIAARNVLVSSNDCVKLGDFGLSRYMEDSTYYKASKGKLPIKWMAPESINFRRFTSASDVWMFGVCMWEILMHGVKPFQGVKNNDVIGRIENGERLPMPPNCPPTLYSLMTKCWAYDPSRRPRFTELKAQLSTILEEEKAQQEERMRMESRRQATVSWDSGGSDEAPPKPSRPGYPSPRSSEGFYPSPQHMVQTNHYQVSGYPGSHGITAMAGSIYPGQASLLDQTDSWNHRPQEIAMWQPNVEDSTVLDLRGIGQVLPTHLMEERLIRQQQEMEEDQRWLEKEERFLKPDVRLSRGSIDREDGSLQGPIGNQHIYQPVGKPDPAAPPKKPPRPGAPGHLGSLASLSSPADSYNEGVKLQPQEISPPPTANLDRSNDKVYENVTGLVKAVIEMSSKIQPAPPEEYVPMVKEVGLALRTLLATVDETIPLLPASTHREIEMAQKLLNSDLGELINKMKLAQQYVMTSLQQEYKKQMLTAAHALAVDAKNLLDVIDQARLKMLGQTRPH
# [2] = Cytotoxicity against human 2BS assessed as cell viability incubated for 48 hrs by MTT assay; assay type: toxicity, cell-based; conditions: 2BS cells
# [3] = system: U-87 MG; experiment: Antiproliferative activity against human U-87 MG assessed as cell viability incubated for 48 hrs by MTT assay; assay type: functional, cell-based, U-87MG ATCC
# [4] = system: U-251; experiment: Antiproliferative activity against human U-251 assessed as cell viability incubated for 48 hrs by MTT assay; assay type: functional, cell-based; conditions: U-251, 48 h
# [5] = target: T1, Focal adhesion kinase 1; experiment: Inhibition of FAK (unknown origin) at 10 nM relative to control
# Target sequence in this assay (Q05397 2-1052 limits assumed): as above
# [6] = target: T1, Focal adhesion kinase 1; experiment: Inhibition of FAK (unknown origin) preincubated for 10 mins followed by ATP and substrate addition and measured after 50 mins by HTRF analysis
# Target sequence in this assay (Q05397 whole entry): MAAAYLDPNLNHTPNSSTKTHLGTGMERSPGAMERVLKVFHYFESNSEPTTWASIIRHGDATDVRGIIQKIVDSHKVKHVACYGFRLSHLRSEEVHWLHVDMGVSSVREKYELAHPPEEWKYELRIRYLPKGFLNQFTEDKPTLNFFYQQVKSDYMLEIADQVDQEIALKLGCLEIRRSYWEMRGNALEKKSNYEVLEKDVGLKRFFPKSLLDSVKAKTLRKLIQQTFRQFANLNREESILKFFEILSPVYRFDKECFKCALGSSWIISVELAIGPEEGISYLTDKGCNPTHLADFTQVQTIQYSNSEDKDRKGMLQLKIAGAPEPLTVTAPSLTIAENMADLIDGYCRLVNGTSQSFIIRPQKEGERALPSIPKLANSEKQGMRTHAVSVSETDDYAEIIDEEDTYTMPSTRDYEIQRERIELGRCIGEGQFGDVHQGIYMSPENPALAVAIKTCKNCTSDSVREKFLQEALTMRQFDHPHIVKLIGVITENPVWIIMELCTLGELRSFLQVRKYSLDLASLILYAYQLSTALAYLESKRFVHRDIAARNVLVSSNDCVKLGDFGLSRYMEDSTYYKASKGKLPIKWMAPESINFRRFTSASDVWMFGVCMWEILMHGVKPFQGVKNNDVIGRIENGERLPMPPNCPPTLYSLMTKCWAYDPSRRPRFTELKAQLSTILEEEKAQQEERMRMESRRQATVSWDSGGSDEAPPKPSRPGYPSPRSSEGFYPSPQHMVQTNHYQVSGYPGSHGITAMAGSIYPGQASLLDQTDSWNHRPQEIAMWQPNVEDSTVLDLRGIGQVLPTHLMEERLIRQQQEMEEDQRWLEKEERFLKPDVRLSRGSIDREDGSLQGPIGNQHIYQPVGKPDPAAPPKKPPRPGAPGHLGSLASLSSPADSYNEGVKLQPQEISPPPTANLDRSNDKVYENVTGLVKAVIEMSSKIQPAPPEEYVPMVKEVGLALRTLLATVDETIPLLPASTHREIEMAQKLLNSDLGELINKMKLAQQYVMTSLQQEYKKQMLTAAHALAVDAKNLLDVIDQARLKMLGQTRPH
# [7] = Distribution coefficient, logD of compound in n-Octanol/water at pH 7.4; assay type: physicochemical
# [8] = Selectivity ratio of IC50 for cytotoxicity against human LO2 assessed as cell viability to IC50 for antiproliferative activity against human U-251 assessed as cell viability; assay type: toxicity; conditions: LO2 cells versus U-251 cells, read-out: Ratio IC50
# [9] = system: U-87 MG; experiment: Induction of DNA damage in human U-87 MG cells assessed as comet tail moment at 0.1 to 2 uM incubated for 2.5 to 3 hrs by comet assay; assay type: functional; conditions: U-87MG ATCC, time 2.5-3 hrs
# [10] = Cytotoxicity against human LO2 assessed as cell viability incubated for 48 hrs by MTT assay; assay type: toxicity, cell-based, L02; conditions: LO2 cells
# [11] = Selectivity ratio of IC50 for cytotoxicity against human LO2 assessed as cell viability to IC50 for antiproliferative activity against human U-87 MG assessed as cell viability; assay type: toxicity; conditions: LO2 cells versus U-87 MG cells, read-out: Ratio IC50
# [12] = Effective permeability of compound at pH 7.4 incubated for 16 hrs by LCMS analysis; assay type: ADME; conditions: pH 7.4, 16 h
smiles,measurement,setting,value
CNC(=O)c1ccccc1Nc1nc(Nc2ccc(N3CCN(C)CC3)cc2)ncc1Cl,inhibition,[1],80.2%
same,IC50 at 48 h,[2],11600 nM
same,IC50,[3],17 nM
same,IC50,[4],64 nM
same,inhibition,[5],76.4%
same,IC50,[6],3.2 nM
same,logD,[7],3.1
same,selectivity ratio,[8],> 40
same,Activity,[9],inactive
same,IC50 at 48 h,[10],801 nM
same,selectivity ratio,[11],> 40
CNC(=O)c1ccccc1Nc1nc(Nc2ccc(N3CCN(C(=O)c4ccc(N(CCCl)CCCl)cc4)CC3)cc2OC)ncc1Cl,inhibition,[1],64.6%
same,IC50,[3],> 50000 nM
same,IC50,[4],> 50000 nM
same,inhibition,[5],26.2%
CNC(=O)c1ccccc1Nc1nc(Nc2ccc(C3CCN(C(=O)c4ccc(N(CCCl)CCCl)cc4)CC3)cc2)ncc1Cl,inhibition,[1],58.6%
same,IC50,[3],39600 nM
same,IC50,[4],> 50000 nM
same,inhibition,[5],34%
CNC(=O)c1ccccc1Nc1nc(Nc2ccc(N3CCN(CCO)CC3)cc2)ncc1Cl,inhibition,[1],77.9%
same,IC50,[3],62 nM
same,IC50,[4],194 nM
same,inhibition,[5],67.7%
CNC(=O)c1ccccc1Nc1nc(Nc2ccc(N3CCNCC3)cc2)ncc1Cl,inhibition,[1],78.6%
same,IC50,[3],36 nM
same,IC50,[4],79 nM
same,inhibition,[5],67.9%
CNC(=O)c1ccccc1Nc1nc(Nc2ccc(N3CCN(CCOC(=O)c4ccc(N(CCCl)CCCl)cc4)CC3)cc2)ncc1C(F)(F)F,inhibition,[1],96.4%
same,IC50 at 48 h,[2],24100 nM
same,Peff,[12],0.001 10^-6 cm/s
same,IC50,[3],27 nM
same,IC50,[4],31 nM
same,inhibition,[5],81.3%
same,IC50,[6],4.28 nM
same,logD,[7],5.34
same,selectivity ratio,[8],> 40
same,IC50 at 48 h,[10],1210 nM
same,selectivity ratio,[11],> 40
CNC(=O)c1ccccc1Nc1nc(Nc2ccc(N3CCN(CCOC(=O)c4ccc(N(CCCl)CCCl)cc4)CC3)cc2)ncc1Cl,inhibition,[1],78.5%
same,IC50,[3],390 nM
same,IC50,[4],1210 nM
same,inhibition,[5],51.9%
CNC(=O)c1ccccc1Nc1nc(Nc2ccc(N3CCN(CCOC(=O)CCCc4ccc(N(CCCl)CCCl)cc4)CC3)cc2)ncc1C,inhibition,[1],97.5%
same,IC50,[3],42 nM
same,IC50,[4],168 nM
same,inhibition,[5],65.8%
CNC(=O)c1ccccc1Nc1nc(Nc2ccc(N3CCN(CCOC(=O)CCCc4ccc(N(CCCl)CCCl)cc4)CC3)cc2)ncc1Cl,inhibition,[1],94.5%
same,IC50,[3],95 nM
same,IC50,[4],485 nM
same,inhibition,[5],79.8%
CNC(=O)c1ccccc1Nc1nc(Nc2ccc(C3CCN(C(=O)CCCc4ccc(N(CCCl)CCCl)cc4)CC3)cc2)ncc1Cl,inhibition,[1],67.5%
same,IC50,[3],1400 nM
same,IC50,[4],18200 nM
same,inhibition,[5],56.4%
CNC(=O)c1ccccc1Nc1nc(Nc2ccc(N3CCN(C(=O)c4ccc(N(CCCl)CCCl)cc4)CC3)cc2)ncc1Cl,inhibition,[1],77.5%
same,IC50,[3],1760 nM
same,IC50,[4],6260 nM
same,inhibition,[5],55.8%
CNC(=O)c1ccccc1Nc1nc(Nc2ccc(N3CCN(CCOC(=O)CCCc4ccc(N(CCCl)CCCl)cc4)CC3)cc2)ncc1[N+](=O)[O-],inhibition,[1],75.4%
same,IC50,[3],605 nM
same,IC50,[4],849 nM
same,inhibition,[5],36.5%
CNC(=O)c1ccccc1Nc1nc(Nc2ccc(N3CCN(C(=O)CCCc4ccc(N(CCCl)CCCl)cc4)CC3)cc2)ncc1Cl,inhibition,[1],74.2%
same,IC50,[3],990 nM
same,IC50,[4],3700 nM
same,inhibition,[5],55.4%
O=C(O)CCCc1ccc(N(CCCl)CCCl)cc1 [CHLORAMBUCIL],inhibition,[1],8.54%
same,IC50,[3],> 50000 nM
same,IC50,[4],> 50000 nM
same,inhibition,[5],2.77%
CNC(=O)c1ccccc1Nc1nc(Nc2ccc(N3CCN(C(=O)CCCc4ccc(N(CCCl)CCCl)cc4)CC3)cc2OC)ncc1Cl,inhibition,[1],67.3%
same,IC50,[3],18000 nM
same,IC50,[4],> 50000 nM
same,inhibition,[5],32.2%
CNC(=O)c1ccccc1Nc1nc(Nc2ccc(N3CCN(CCOC(=O)CCCc4ccc(N(CCCl)CCCl)cc4)CC3)cc2)ncc1Br,inhibition,[1],94.2%
same,IC50,[3],30 nM
same,IC50,[4],81 nM
same,inhibition,[5],68.4%
